Data reported in the supplement of paper PMC6045584.
± gives the standard deviation of the averaged measurements.

Experiments:
[1] = compound: COc1ccc(-c2cc3c(C)nc(N)nc3n([C@H]3CC[C@H](OCCO)CC3)c2=O)cn1; experiment: surviving fraction relative to DMSO-only wells; higher = less growth inhibition; details: exposure time: 5 days
Summary of the method: (§1)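 Surviving fraction was calculated by normalising CellTiter-Glo luminescence to the median of DMSO-only wells. Tumour cell lines in log phase were seeded in 384-well plates at 250–500 cells per well, and 24 hours later were exposed continuously for five days to inhibitors at 0.5, 1, 5, 10, 50, 100, 500 and 1000 nM.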

BMN-673 = compound: Cn1ncnc1[C@H]1c2n[nH]c(=O)c3cc(F)cc(c23)N[C@@H]1c1ccc(F)cc1 [BMN-673]; experiment: as above; details: exposure time: 5 days
Summary of the method: as §1

Row | Test System | surviving fraction ([1]; 0.5 nM) | surviving fraction ([1]; 1 nM) | surviving fraction ([1]; 5 nM) | surviving fraction ([1]; 10 nM) | surviving fraction ([1]; 50 nM) | surviving fraction ([1]; 100 nM) | surviving fraction ([1]; 500 nM) | surviving fraction ([1]; 1000 nM) | surviving fraction (BMN-673; 0.5 nM) | surviving fraction (BMN-673; 1 nM) | surviving fraction (BMN-673; 5 nM) | surviving fraction (BMN-673; 10 nM) | surviving fraction (BMN-673; 50 nM) | surviving fraction (BMN-673; 100 nM) | surviving fraction (BMN-673; 500 nM) | surviving fraction (BMN-673; 1000 nM)
1 | DU4475 BREAST | 0.752 ± 0.16 | 0.767 ± 0.18 | 0.667 ± 0.25 | 0.639 ± 0.24 | 0.412 ± 0.074 | 0.301 ± 0.057 | 0.0443 ± 0.021 | 0.0323 ± 0.006 | 1.1 ± 0.049 | 0.916 ± 0.11 | 0.57 ± 0.055 | 0.456 ± 0.071 | 0.325 ± 0.068 | 0.278 ± 0.054 | 0.284 ± 0.052 | 0.293 ± 0.027
2 | H23 LUNG | 0.989 ± 0.016 | 0.98 ± 0.078 | 0.872 ± 0.063 | 0.731 ± 0.042 | 0.422 ± 0.018 | 0.265 ± 0.028 | 0.127 ± 0.0091 | 0.0933 ± 0.005 | 1.07 ± 0.04 | 1.07 ± 0.056 | 1.06 ± 0.054 | 0.937 ± 0.014 | 0.779 ± 0.024 | 0.688 ± 0.055 | 0.507 ± 0.23 | 0.238 ± 0.02
3 | HCC78 LUNG | 0.928 ± 0.31 | 0.845 ± 0.15 | 0.653 ± 0.27 | 0.588 ± 0.17 | 0.28 ± 0.048 | 0.104 ± 0.0093 | 0.022 ± 0.0044 | 0.0197 ± 0.0023 | 1.06 ± 0.077 | 1 ± 0.097 | 1.04 ± 0.098 | 0.931 ± 0.21 | 0.678 ± 0.19 | 0.47 ± 0.084 | 0.117 ± 0.013 | 0.0383 ± 0.013
4 | HCC202 BREAST | 1.18 ± 0.25 | 1.37 ± 0.17 | 0.947 ± 0.27 | 0.94 ± 0.21 | 0.635 ± 0.18 | 0.295 ± 0.047 | 0.0793 ± 0.018 | 0.048 ± 0.013 | 0.932 ± 0.39 | 1.15 ± 0.44 | 0.688 ± 0.18 | 0.769 ± 0.34 | 0.661 ± 0.13 | 0.566 ± 0.14 | 0.81 ± 0.05 | 0.671 ± 0.11
5 | HCC1395 BREAST | 0.864 ± 0.096 | 0.956 ± 0.025 | 0.998 ± 0.076 | 1.03 ± 0.029 | 0.883 ± 0.21 | 0.846 ± 0.13 | 0.766 ± 0.1 | 0.581 ± 0.15 | 1 ± 0.13 | 0.991 ± 0.081 | 0.86 ± 0.054 | 0.967 ± 0.045 | 0.892 ± 0.064 | 0.8195 ± 0.0048 | 0.715 ± 0.039 | 0.637 ± 0.12
6 | HCC1806 BREAST | 1.08 ± 0.14 | 1.1 ± 0.042 | 1.12 ± 0.18 | 1.05 ± 0.094 | 0.993 ± 0.059 | 0.754 ± 0.1 | 0.366 ± 0.037 | 0.215 ± 0.0097 | 0.904 ± 0.043 | 0.875 ± 0.021 | 0.451 ± 0.035 | 0.313 ± 0.021 | 0.234 ± 0.0079 | 0.186 ± 0.0061 | 0.171 ± 0.017 | 0.168 ± 0.015
7 | HCC1954 BREAST | 0.993 ± 0.024 | 0.945 ± 0.056 | 1.153 ± 0.0064 | 1.03 ± 0.044 | 0.487 ± 0.08 | 0.322 ± 0.047 | 0.0592 ± 0.0095 | 0.0478 ± 0.0011 | 1.01 ± 0.17 | 1.34 ± 0.34 | 1.25 ± 0.17 | 1.21 ± 0.12 | 0.907 ± 0.038 | 0.804 ± 0.042 | 0.71 ± 0.12 | 0.74 ± 0.072
8 | HCT15 LARGE INTESTINE | 0.981 ± 0.029 | 1.04 ± 0.051 | 1.01 ± 0.016 | 0.975 ± 0.021 | 0.76 ± 0.016 | 0.543 ± 0.04 | 0.16 ± 0.013 | 0.091 ± 0.0046 | 1.09 ± 0.078 | 1.03 ± 0.086 | 1.06 ± 0.015 | 0.945 ± 0.021 | 0.584 ± 0.14 | 0.44 ± 0.058 | 0.146 ± 0.022 | 0.102 ± 0.0078
